Where “and” joins values, the source holds several entries; their conditions need not be identical. Identical values can stand only once. Like-named read-outs stand apart in the source and are kept apart here.
Experiments:
[1] = tested on: CNS ischemia; settings: rabbits; cited from earlier work
[2] = target: NMDA receptor; test: [3H]CGS19755 radioligand binding to Triton-X-treated synaptosomal membranes of rat forebrain; design: species or system rat (male Sprague-Dawley); settings: [3H]CGS19755 10 nM, ice-bath 30 min, mean, standard error, n=3
Method: The formula I compounds were tested for their ability to inhibit NMDA receptor binding to rat membranes in a radioligand binding assay using [^3 H]CGS19755. For these radioligand binding assays, male Sprague-Dawley rats were used. Displacement of the specific binding [^3 H]CGS19755 (10 nM)to Triton-X-treated synaptosomal membranes of rat forebrain was used to determine NMDA receptor affinity. Non-specific binding was determined using 10 μM L-glutamate. Samples were incubated in an ice-bath for 30 minutes, and bound ligand was separated from the free ligand by rapid filtration through WHATMAN GF/B glass fiber filters. Murphy et al, British J. Pharmacol., 95, 932-938 (1988). The concentration of the formula I compound that inhibited 50% binding (IC50, mean standard error, n=3)was calculated by linear regression of displacement data transformed to the Hill equation as described by Bennett. Bennett, Neurotransmitter Receptor Binding, 57-90 (1978).

[3] = tested on: NMDA receptor; test: Antagonism of NMDA-induced depolarization of rat cortical wedges; type: cell-based; settings: for NMDA receptor antagonist activity: cortical wedge assay, Table II
Method: The depolarization of rat cortical wedges was used to test the selectivity and potency of the formula I compounds as NMDA antagonist using a technique similar to that described by Harrison and Simmonds. Harrison and Simmonds, Bri. J. Pharmacol., 84, 381-391 (1984). Generally, 4-ml aliguots of NMDA (40 μM)were superfused (2 ml/min)on the gray matter at intervals of 15 to 20 minutes until stable responses where obtained. The tissue was then exposed for 15 minutes to various concentrations of the formula I compounds before retesting the agonist. The IC50 values were calculated from linear regression of log dose-response curves, each point the mean of at least three observations on separate slices from more than one animal.
The cortical wedge assay distinguishes between agonist and antagonist activity.

[4] = target: NMDA receptor; test: [3H]MK-801 binding to well washed rat cortical membranes; settings: [3H]MK-801 2.5 nM, glutamate 0.001 μM and glycine 10 μM, 27° C., two hours, mean of three experiments
Method: The formula I compounds were also tested for their ability to inhibit NMDA receptor binding using [^3 H]MK-801 (New England Nuclear, Boston, Mass.). Rat brain cortices were extensively washed to remove endogenous glutamate and glycine. Cortices were homogenized in 20 volumes of ice-cold 0.32M sucrose and centrifuged at 1,000 xg for ten minutes. The supernatant was then centrifuged at 20,000 xg for 20 minutes. The resulting pellet was resuspended in 30 volumes of distilled water and centrifuged at 8,000 xg for 20 minutes. The resulting supernatant was centrifuged at 45,000 xg for 20 minutes and the pellet frozen in liquid nitrogen for at least 24 hours. On the day of the assay, the pellet was thawed at room temperature and resuspended in 30 volumes of ice-cold distilled water and centrifuged at 45,000 xg for 20 minutes. The final pellet was resuspended in 50 mM Tris (pH 7.4)at a concentration of 10 vol/gram wet weight of tissue.
The binding of [^3 H]MK-801 to well washed rat cortical membranes was conducted in the presence of added glutamate (0.001 μM) and glycine (10 μM). Antagonists were incubated with [^3 H]MK-801 (2.5 nM) and membrane aliquots (μg/ml protein)in a final volume of 1 ml at 27° C. for two hours. Nonspecific [^3 H]MK-801 binding was determined in the presence of 100 μM MK-801. Assays were terminated by filtering the samples over Whatman GF/B glass-fiber filters, presoaked in 0.05% polyethyleneimine, followed by a 10 ml ice cold saline wash.
These assays were performed in triplicate, and the mean values of three separate experiments were used to obtain the half maximal effective concentration. Final protein concentrations (0.5 mg/ml)for each assay were determined using the Lowry et al. (1951)method. Lowry, Rosebrough, Farr, and Randall, J. Biol. Chem., 193, 265-275 (1951). Analysis of the data was performed using a four-parameter logistic equation Graphpad Software San Diego, Calif.).

[5] = tested on: warm water tail withdrawal; settings: rhesus monkeys; cited from earlier work
[6] = tested on: focal cerebral ischemia; settings: rats; cited from earlier work
[7] = tested on: focal cerebral ischemia; settings: cats; cited from earlier work
[8] = tested on: formalin model; settings: mouse; cited from earlier work

| Compound | IC50 [2] | IC50 ([3]; 0.25 h) [µM] | IC50 [4] [µM] | other results |
| --- | --- | --- | --- | --- |
| O=C(O)[C@H]1C[C@@H](Cc2nn[nH]n2)CCN1 (relative stereo) [LY233053] |  |  |  | protection in CNS ischemia model [1]: provided protection |
| O=C(O)[C@H]1NC[C@@H]2CC[C@H](Cc3nn[nH]n3)[C@@H]21 (relative stereo) [Compound 33, (1SR,2SR,5RS,8RS)-3-Aza-8-((1(2)H-tetrazol-5-yl)methyl)bicyclo[3.3.0]octane-2-carboxylic Acid] | 0.67 µM and < 1 µM | 28.6 ± 5.6 | 36.6 ± 7 | NMDA receptor antagonist activity [3]: NMDA receptor antagonists |
| O=C(O)[C@H]1NC[C@@H]2CCC(CCc3nn[nH]n3)[C@@H]21 (stereo partly drawn) [Compound 21, (1SR,2SR,5RS,8SR)-3-Aza-8-(2-(1 (2)H-tetrazol-5-yl)ethyl)bicyclo[3.3.0]octane-2-carboxylic Acid and (1SR,2SR,5RS,8RS)-3-Aza-8-(2-(1(2)H-tetrazol-5-yl)ethyl)bicyclo[3.3.0]octane-2-carboxylic Acid] | 4.5 ± 0.98 µM | > 100 | 37.7 ± 9.3 |  |
| O=C(O)CCC1CC[C@H]2CN[C@H](C(=O)O)[C@@H]12 (stereo partly drawn) [Compound 20, (1SR,2SR,5RS,8SR)-3-Aza-8-(2-carboxyethyl)bicyclo[3.3.0]octane-2-carboxylic Acid and (1SR,2SR,5RS,8RS)-3-Aza-8-(2-carboxyethyl)bicyclo[3.3.0]octane-2-carboxylic Acid] | 1.44 ± 0.04 µM | > 100 | 47.3 ± 21 |  |
| O=C(O)CC1CC[C@H]2CN[C@H](C(=O)O)[C@@H]12 (stereo partly drawn) [Compound 13, (1SR,2SR,5RS,8SR)-3-Aza-8-(carboxymethyl)bicyclo[3.3.0]octane-2-carboxylicAcid and (1SR,2SR,5RS,8RS)-3-Aza-8-(carboxymethyl)bicyclo[3.3.0]octane-2-carboxylicAcid] | 1.19 ± 0.54 µM | 52 ± 8 | 39 ± 8.7 |  |
| O=C(O)[C@@H]1C[C@H](CP(=O)(O)O)CCN1 [CGS 19755] |  |  |  | analgesia in warm water tail withdrawal procedure [5]: analgesic; protection in focal cerebral ischemia model [6]: provided protection |
| C[C@]12N[C@H](Cc3ccccc31)c1ccccc12 [dizocilpine] |  |  |  | protection in focal cerebral ischemia model [7]: provided protection; protection in focal cerebral ischemia model [6]: provided protection |
| O=C(O)[C@H]1NC[C@@H]2CCC(CCSc3nn[nH]n3)[C@@H]21 (stereo partly drawn) [Compound 22, (1SR,2SR,5RS,8SR)-3-Aza-8-(2-(1(2)H-tetrazole-5-thio)ethyl)bicyclo[3.3.0]octane-2-carboxylic Acid and (1SR,2SR,5RS,8RS)-3-Aza-8-(2-(1(2)H-tetrazole-5-thio)ethyl)bicyclo[3.3.0]octane-2-carboxylic Acid] | 26.1 ± 6.13 µM |  | > 100 |  |
| O=C(O)[C@H]1NC[C@@H]2CCC(CCOCc3nn[nH]n3)[C@@H]21 (stereo partly drawn) [Compound 23, (1SR,2SR, 5RS,8SR)-3-Aza-8-(2-(1(2)H-tetrazol-5-ylmethoxy)ethyl)bicyclo[3.3.0]octane-2-carboxylic Acid and (1SR,2SR,5RS,8RS)-3-Aza-8-(2-(1(2)H-tetrazol-5-ylmethoxy)ethyl)bicyclo[3.3.0]octane-2-carboxylic Acid] | > 100 µM |  | > 100 | IC50 ([3]; NMDA 40 μM, 15 min exposure to compound, rat cortical wedges, read-out: Antagonism of Cortical Wedge Depolarization IC50): > 100 µM |
| O=C(O)[C@H]1CN(C/C=C/P(=O)(O)O)CCN1 [D-(-)CPP-ene] |  |  |  | protection in focal cerebral ischemia model [7]: provided protection |
| O=C(O)C1NCC2CCC(CSc3nn[nH]n3)C21 (stereo not drawn) [Compound 32, (1SR,2SR,5RS,8SR)-3-Aza-8-((1(2)H-tetrazole-5-thio)methyl)bicyclo[3.3.0]octane-2-carboxylic Acid] | 1.31 ± 0.48 µM | 59.7 ± 10 | 27.8 ± 12.2 |  |
| NC(CCCP(=O)(O)O)C(=O)O (racemic) [DL-AP5] |  |  |  | analgesia in formalin model [8]: analgesic |
| O=C(O)[C@H]1NC[C@@H]2CC[C@@H](Cc3nn[nH]n3)[C@@H]21 (relative stereo) [Compound 38, (1SR,2SR,5RS,8SR)-3-Aza-8-((1(2)H-tetrazol-5-yl)methyl)bicyclo[3.3.0]octane-2-carboxylic Acid] | 3.13 ± 0.58 µM | > 100 | 47.3 ± 7.62 |  |
| O=C(O)[C@H]1NC[C@@H]2CCC(Cc3nn[nH]n3)[C@@H]21 (stereo partly drawn) [Compound 12, (1SR,2SR,5RS,8SR)-3-Aza-8-((1(2)H-tetrazol-5-yl)methyl)bicyclo[3.3.0]octane-2-carboxylic Acid and (1SR,2SR,5RS,8RS)-3-Aza-8-((1(2)H-tetrazol-5-yl)methyl)bicyclo[3.3.0]octane-2-carboxylic Acid] | 0.73 µM and < 1 µM | 9.5 ± 5 | 49.7 ± 14.2 | NMDA receptor antagonist activity [3]: NMDA receptor antagonists |
| O=C(O)[C@H]1NC[C@@H]2CCC(OCc3nn[nH]n3)[C@@H]21 (stereo partly drawn) [Compound 27, (1SR,2SR,5RS,8SR)-3-Aza-8-((1(2)H-tetrazol-5-yl)methoxy)bicyclo[3.3.0]octane-2-carboxylic Acid and (1SR,2SR,5RS,8RS)-3-Aza-8-((1(2)H-tetrazol-5-yl)methoxy)bicyclo[3.3.0]octane-2-carboxylic Acid] | 5.66 ± 0.15 µM |  | > 100 |  |
